Values joined by “and” are separate entries in the source; they are usually repeats but may differ in a detail not shown here. Identical values can stand only once.
How the values were obtained:
[1] = system: neonatal rat ventricular cardiomyocytes (NVCM); assay: Protection against DAU-induced cytotoxicity (LDH release) in NVCM; format: cell-based; set-up: key to Suppl.Fig.3 DAU-induced cytotoxicity (LDH release) in NVCM, mean of independent replicates / LDH release (DAU-induced cytotoxicity), mean of independent replicates: % of total LDH activity; conditions: for LDH release: independent replicates
Outline: (§1)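 Primary neonatal Wistar rat cardiomyocytes in serum- and pyruvate-free DMEM/F12 were pretreated with compound 3 h, then co-incubated 3 h with DAU (1.2 µM), or without DAU for inherent toxicity, then given a 48 h drug-free follow-up. Medium LDH activity (NAD+ reduction at 340 nm) expressed as % of total LDH.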

[2] = system: neonatal rat ventricular cardiomyocytes (NVCM); assay: Inherent toxicity (LDH release) in NVCM; format: cell-based; set-up: key to LDH release (inherent toxicity), mean of independent replicates: % of total LDH activity; conditions: NVCM; for LDH release (inherent toxicity), mean of independent replicates: Suppl.Fig.4
Outline: as §1

recombinant human TOP2B = molecular target: T1, recombinant human TOP2B (Homo sapiens, UniProt Q02880); assay: DNA decatenation assay, recombinant TOP2B; format: biochemical; conditions: for Normalized % TOP2B activity, decatenation: independent replicates
T1 construct: Using recombinant full-length human TOP2A and TOP2B enzymes; YFP (N, cleaved yes); made in house; host or cells: HEK293F
Protocol: The human topoisomerase II decatenation assay was performed to determine the inhibitory effects of BNS-22 and new compounds as previously described with minor modifications[14],[36]. The assay was performed using recombinant human TOP2A or TOP2B generated using the HEK293F YFP-tag expression system as previously described[18],[19],[36]. Briefly, plasmids encoding YFP-TOP2A or YFP-TOP2B were transfected into HEK293F cells (Catalog number 11625019, Thermofisher Scientific), and TOP2 proteins were isolated from cell lysates by anti-YFP nanobody affinity chromatography. After elution by TEV protease cleavage, TOP2 proteins were FPLC purified by sequential cation exchange and size exclusion chromatography. Plasmid encoding TOP2B C88Y was generated by round-the-horn PCR mutagenesis and the sequence was verified by full-plasmid sequencing. Purified TOP2 proteins were stored in a storage buffer containing 20 mM HEPES pH 7.5, 500 mM NaCl, 0.5 mM TCEP, 25% (v/v) glycerol at -80 °C. For decatenation assays, purified TOP2 proteins were incubated with 200 ng kDNA (Topogen) in a reaction buffer containing 50 mM Tris−HCl (pH 8), 100 mM NaCl, 10 mM MgCl2, 0.5 mM DTT, 2 mM ATP, 0.1 mM tris(2-carboxyethyl)phosphine (TCEP), 5% (v/v) glycerol, 70 μg/mL bovine serum albumin, and 1/10 volume of each compound diluted in 10% DMSO (final DMSO concentration 1%) for 40 min at 37 °C. The reaction was then stopped by the addition of gel loading buffer (0.5 volumes of 60% (w/v) glycerol, 60 mM EDTA, 20 mM Tris−HCl (pH 7.5), 0.5 mg/mL bromophenol blue) and the samples were placed on ice. Reaction products were resolved by agarose gel electrophoresis in TBE buffer containing GelRed stain (Biotium). Gels were visualized using an iBright CL1000 (Thermofisher Scientific). Band intensities were quantified using FIJI, and the signal of the treated samples was normalized to the value of the control (untreated sample; 100%) present on the same gel. The normalized signal of three independent measurements was then expressed as mean ± SD. Each presented data point was obtained from distinct sample. Normalized values were plotted as a function of inhibitor concentration to determine IC50 values by nonlinear regression with variable slope using Prism 9 (GraphPad).

T1 sequence (Q02880 1-1621 isoform Q02880-2): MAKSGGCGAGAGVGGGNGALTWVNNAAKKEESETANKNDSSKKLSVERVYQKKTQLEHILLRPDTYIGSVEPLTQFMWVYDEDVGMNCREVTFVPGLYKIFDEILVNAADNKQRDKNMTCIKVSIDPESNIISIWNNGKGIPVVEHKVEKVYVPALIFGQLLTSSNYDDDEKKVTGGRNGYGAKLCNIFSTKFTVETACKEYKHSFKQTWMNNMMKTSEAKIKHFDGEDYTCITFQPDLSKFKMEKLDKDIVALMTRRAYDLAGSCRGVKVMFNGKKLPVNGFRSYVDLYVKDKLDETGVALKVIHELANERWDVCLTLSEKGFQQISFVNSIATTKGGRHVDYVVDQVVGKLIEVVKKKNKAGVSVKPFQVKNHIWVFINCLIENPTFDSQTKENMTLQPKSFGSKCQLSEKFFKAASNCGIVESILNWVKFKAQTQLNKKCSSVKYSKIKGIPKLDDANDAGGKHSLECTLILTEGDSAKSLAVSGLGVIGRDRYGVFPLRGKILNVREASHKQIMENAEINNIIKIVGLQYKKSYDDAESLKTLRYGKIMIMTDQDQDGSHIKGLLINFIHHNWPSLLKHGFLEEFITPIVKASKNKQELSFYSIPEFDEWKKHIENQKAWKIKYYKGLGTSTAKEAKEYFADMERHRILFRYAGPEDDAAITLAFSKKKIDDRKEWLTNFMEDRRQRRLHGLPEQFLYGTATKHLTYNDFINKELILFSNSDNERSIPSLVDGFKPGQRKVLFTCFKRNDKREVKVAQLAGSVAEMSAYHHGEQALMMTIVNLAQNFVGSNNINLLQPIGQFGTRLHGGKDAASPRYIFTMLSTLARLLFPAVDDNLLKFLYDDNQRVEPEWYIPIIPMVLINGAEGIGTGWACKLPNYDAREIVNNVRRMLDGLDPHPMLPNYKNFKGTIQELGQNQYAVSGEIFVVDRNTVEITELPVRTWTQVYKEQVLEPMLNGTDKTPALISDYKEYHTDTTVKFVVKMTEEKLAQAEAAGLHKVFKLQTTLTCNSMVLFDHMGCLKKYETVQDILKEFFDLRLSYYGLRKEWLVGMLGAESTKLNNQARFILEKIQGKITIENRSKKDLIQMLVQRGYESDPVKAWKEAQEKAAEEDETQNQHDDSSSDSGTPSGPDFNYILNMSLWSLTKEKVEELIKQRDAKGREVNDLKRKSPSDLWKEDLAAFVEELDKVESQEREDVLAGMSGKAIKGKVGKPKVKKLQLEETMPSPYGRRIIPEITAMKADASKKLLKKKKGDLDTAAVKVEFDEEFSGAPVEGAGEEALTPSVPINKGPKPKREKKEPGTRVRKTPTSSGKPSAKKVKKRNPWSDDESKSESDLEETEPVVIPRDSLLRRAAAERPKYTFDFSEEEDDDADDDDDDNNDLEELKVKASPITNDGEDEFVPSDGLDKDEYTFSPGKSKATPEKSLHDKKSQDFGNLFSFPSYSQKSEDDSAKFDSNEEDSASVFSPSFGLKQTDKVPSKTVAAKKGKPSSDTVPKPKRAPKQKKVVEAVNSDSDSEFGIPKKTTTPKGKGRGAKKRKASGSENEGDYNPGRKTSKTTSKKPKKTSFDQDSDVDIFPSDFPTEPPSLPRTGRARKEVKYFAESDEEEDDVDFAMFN

With `CCCc1cc(=O)oc2c(C(=O)N3CCCc4ccccc43)c(OC)cc(OC)c12` [BNS-22] the minimal effective concentration ([1]; NVCM, protection against DAU 1.2 µM, n=4, read-out: LEC = lowest effective concentration) was 1 µM, the “LDH release, mean” value ([1]; compound 0.01 µM + DAU 1.2 µM) was 38.9374 % of total LDH and the “Suppl.Fig.3 DAU-induced cytotoxicity (LDH release) in NVCM, mean of independent replicates” value (“Suppl.Fig.3 DAU-induced cytotoxicity” for short) ([1]; compound 0.01 µM + DAU 1.2 µM) was 38.9374. For the same compound, the LDH release ([1]; compound 0.01 µM + DAU 1.2 µM) was 36.8796 % of total LDH and 42.975 % of total LDH and 39.3894 % of total LDH and 36.5057 % of total LDH, the “LDH release, mean” value ([1]; compound 0.1 µM + DAU 1.2 µM) was 33.1153 % of total LDH and the “Suppl.Fig.3 DAU-induced cytotoxicity” value ([1]; compound 0.1 µM + DAU 1.2 µM) was 33.1153. For the same compound, the LDH release ([1]; compound 0.1 µM + DAU 1.2 µM) was 30.1987 % of total LDH and 38.5314 % of total LDH and 34.1236 % of total LDH and 29.6074 % of total LDH, the “LDH release, mean” value ([1]; compound 1 µM + DAU 1.2 µM) was 28.1702 % of total LDH and the “Suppl.Fig.3 DAU-induced cytotoxicity” value ([1]; compound 1 µM + DAU 1.2 µM) was 28.1702. For the same compound, the LDH release ([1]; compound 1 µM + DAU 1.2 µM) was 24.6443 % of total LDH and 29.0885 % of total LDH and 32.0729 % of total LDH and 26.875 % of total LDH, the “LDH release, mean” value ([1]; compound 3 µM + DAU 1.2 µM) was 24.9748 % of total LDH and the “Suppl.Fig.3 DAU-induced cytotoxicity” value ([1]; compound 3 µM + DAU 1.2 µM) was 24.9748. The LDH release ([1]; compound 3 µM + DAU 1.2 µM) was 26.7887 % of total LDH and 18.8271 % of total LDH and 27.1872 % of total LDH and 27.096 % of total LDH, the “LDH release, mean” value ([1]; compound 10 µM + DAU 1.2 µM) was 23.9768 % of total LDH and the “Suppl.Fig.3 DAU-induced cytotoxicity” value ([1]; compound 10 µM + DAU 1.2 µM) was 23.9768. For the same compound, the LDH release ([1]; compound 10 µM + DAU 1.2 µM) was 25.2929 % of total LDH and 19.0756 % of total LDH and 25.4172 % of total LDH and 26.1213 % of total LDH, the “LTC = lowest toxic concentration” value ([2]; compound alone, n=4) was greater than 10 µM and the “LDH release (inherent toxicity), mean of independent replicates” value (shortened to “LDH release (inherent toxicity), mean”) ([2]; compound alone 0.01 µM) was 12.6739. The “LDH release (inherent toxicity), mean” value ([2]; compound alone 0.1 µM) was 12.9938, the “LDH release (inherent toxicity), mean” value ([2]; compound alone 1 µM) was 12.9269 and the “LDH release (inherent toxicity), mean” value ([2]; compound alone 3 µM) was 14.5033. The “LDH release (inherent toxicity), mean” value ([2]; compound alone 10 µM) was 16.9772, the “Normalized % TOP2B activity, decatenation” value (“Normalized % TOP2B activity” for short) (recombinant human TOP2B; 0.029 μM) was 110.4% and 102.5% and 86.14% and the “Normalized % TOP2B activity” value (recombinant human TOP2B; 0.059 μM) was 117.4% and 95.62% and 85.84%. The “Normalized % TOP2B activity” value (recombinant human TOP2B; 0.117 μM) was 120.4% and 94.08% and 92.01%, the “Normalized % TOP2B activity” value (recombinant human TOP2B; 0.234 μM) was 93.24% and 96.15% and 88.28% and the “Normalized % TOP2B activity” value (recombinant human TOP2B; 0.469 μM) was 119.4% and 102% and 86.29%. The “Normalized % TOP2B activity” value (recombinant human TOP2B; 0.938 μM) was 128.5% and 90.51% and 82.07%, the “Normalized % TOP2B activity” value (recombinant human TOP2B; 1.875 μM) was 113% and 60.36% and 75.6% and the “Normalized % TOP2B activity” value (recombinant human TOP2B; 3.750 μM) was 78.05% and 36.23% and 45.78%. For the same compound, the “Normalized % TOP2B activity” value (recombinant human TOP2B; 7.500 μM) was 36.99% and 17.69% and 24.26%, the “Normalized % TOP2B activity” value (recombinant human TOP2B; 15.000 μM) was 19.21% and 12.13% and 18.98% and the “Normalized % TOP2B activity” value (recombinant human TOP2B; 30.000 μM) was 18.37% and 9.163% and 14.61%. The “SRbeta (SRTOP2B), decatenation activity” value (recombinant human TOP2B; TOP2A IC50 divided by TOP2B IC50) was 1.6 and the IC50 (recombinant human TOP2B; enzyme expressed in HEK293F, n=3) was 4 µM.

From article PMC12116762, “Topobexin targets the Topoisomerase II ATPase domain for beta isoform-selective inhibition and anthracycline cardioprotection” (Nature Communications, 2025)
